Two molecules from BigSolDB 2.1 can be followed below.

The conditions of this series: in water.

The structures appear in SMILES notation.

Take `O=S(=O)([O-])c1ccc2cc(S(=O)(=O)[O-])ccc2c1.[Na+].[Na+]`: the solubility (mole fraction) – broadly, the moles of solute divided by all moles in the saturated solution – by setting is: (283.15 K) 0.00323; (288.15 K) 0.00343; (293.15 K) 0.00366; (298.15 K) 0.00402; (303.15 K) 0.00437; (308.15 K) 0.00478. For the same molecule, the solubility (mole fraction) by setting is: (313.15 K) 0.00523; (318.15 K) 0.00563; (323.15 K) 0.00611; (328.15 K) 0.00657; (333.15 K) 0.0072.
For `O=S(=O)([O-])c1ccc2ccc(S(=O)(=O)[O-])cc2c1.[Na+].[Na+]`, the solubility (mole fraction) runs as follows: (283.15 K) 0.0128; (288.15 K) 0.014; (293.15 K) 0.0159; (298.15 K) 0.0189; (303.15 K) 0.0224; (308.15 K) 0.0268. For the same molecule, the solubility (mole fraction) is, setting by setting: (313.15 K) 0.0323; (318.15 K) 0.0383; (323.15 K) 0.0473; (328.15 K) 0.0584; (333.15 K) 0.075.
